The source of these data is patent US20130150354A1, “NEW SELECTIVE CCR2 ANTAGONISTS” (BOEHRINGER INGELHEIM INTERNATIONAL GMBH, priority 2011, published 2013).

One assay deals with T1, CCR2 (Homo sapiens, UniProt P41597).
T1 construct: Membranes were prepared from THP-1 cells; endogenous in cells; host or cells: THP-1 (human acute monocytic leukaemia cells), membrane preparation
T1 sequence (P41597 1-360 isoform P41597-2): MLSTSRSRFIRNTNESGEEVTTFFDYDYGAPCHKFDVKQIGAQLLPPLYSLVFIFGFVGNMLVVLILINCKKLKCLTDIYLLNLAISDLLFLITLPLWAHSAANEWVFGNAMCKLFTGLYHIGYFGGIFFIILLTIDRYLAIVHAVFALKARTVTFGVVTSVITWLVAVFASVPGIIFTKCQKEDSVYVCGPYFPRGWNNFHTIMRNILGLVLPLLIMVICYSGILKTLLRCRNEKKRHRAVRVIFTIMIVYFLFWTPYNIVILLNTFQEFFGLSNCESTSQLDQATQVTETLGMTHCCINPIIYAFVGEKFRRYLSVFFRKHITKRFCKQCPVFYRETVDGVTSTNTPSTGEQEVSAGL
The assay can be described thus: CCR2 receptor membrane binding assay (THP-1 membranes, 125I-MCP-1, SPA beads). The conditions noted are these: THP-1 cell membranes, 125I-MCP-1, 8 h; read-out: hKi [nM] (CCR2). Here is the method: The above exemplary substances have been tested for binding to CCR2 using a binding assay as outlined herein below:
THP-1 cells (human acute monocytic leukaemia cells) were cultured under standardized conditions at 37° C. and 5% CO2 in a humidified incubator. THP-1 cells were cultivated in RPMI 1640 medium (Gibco 21875) containing 1% MEM-NEAA (Gibso 11140) 2 mM L-glutamine, 1.5 g/L sodium bicarbonate, 4.5 g/L glucose, 10 mM HEPES and 1.0 mM sodium pyruvate, 90%; 10% fetal calf serum (FCS Gibco 10500-064).
Membranes were prepared from THP-1 cells. THP-1 cells were centrifuged at 300×g at 4° C. for 10 min. The cell pellet was resuspendet in Phosphate Buffer Saline (PBS, including 10 μM Pefabloc and a protease inhibitor mix ‘complete’, Boehringer Mannheim (1 tablet/50 ml)), to a concentration of […]. The membrane preparation was performed by disrupting the cells by nitrogen […] (at 50 bar, for 1 h) in a “Nitrogen Bombe” (Parr Instrument). Cell debris was removed by centrifugation (800×g at 4° C., 1 min). The supernatant was centrifuged at 80000×g, 4° C. for 30 min to sediment the cell membranes. Usually 50 mg of protein (Bradford assay) were yielded from 1×10E9 cells. The membranes were resuspendet in 25 mM HEPES, 25 mM MgCl2, 1 mM CaCl2, 10% Glycerine for storage in aliquots at −80° C. in 25 mM HEPES, 25 mM MgCl2, 1 mM CaCl2, 10% Glycerine and stored at −80° C.
Perkin Elmer NEX 332 Jod^125 MCP-1, Stock: 2200 Ci/mmol solved in 2000 μl assay buffer, stored at −20° C. THP-1 membrane were adjusted with 25 mM HEPES, pH 7.2; 5 mM MgCl2; 0.5 mM CaCl2; 0.2% BSA assay buffer to a concentration of 2.5 μg/15 μl. Amersham Biosciences PVT-WGA Beads (RPNQ0001) were adjusted with assay buffer to a concentration of 0.24 mg/30 μl. For preparation of the membrane-bead-suspension membranes and beads were incubated for 30 min at RT under rotation (60 rpm) with a ratio of 1:2. Test compounds dissolved in 100% DMSO to a concentration of 10 mM and are further diluted with 100% DMSO to 1 mM. All additional compound dilutions were obtained with assay buffer, final 1% DMSO. Compounds, membrane-bead-suspension and [^125]MCP-1 (ca. 25000 cpm/10 μl) were incubated. Bound radioactivity was determined by scintillation counter after 8 h. Determination of affinity of test compounds (dissociation constant hKi) is calculated by iterative fitting of experimental data using the “easy sys” program, which is based on law of mass action (Schittkowski K. (1994), Numerische Mathematik, Vol. 68, 129-142).

For another assay, the target named is T2, human CCR5 (Homo sapiens, UniProt P51681).
T2 construct: expressed in transfected cells; host or cells: CHO cells co-expressing Gα16, grown under puromycin and zeocin selection; membrane preparation
T2 sequence (P51681 whole entry): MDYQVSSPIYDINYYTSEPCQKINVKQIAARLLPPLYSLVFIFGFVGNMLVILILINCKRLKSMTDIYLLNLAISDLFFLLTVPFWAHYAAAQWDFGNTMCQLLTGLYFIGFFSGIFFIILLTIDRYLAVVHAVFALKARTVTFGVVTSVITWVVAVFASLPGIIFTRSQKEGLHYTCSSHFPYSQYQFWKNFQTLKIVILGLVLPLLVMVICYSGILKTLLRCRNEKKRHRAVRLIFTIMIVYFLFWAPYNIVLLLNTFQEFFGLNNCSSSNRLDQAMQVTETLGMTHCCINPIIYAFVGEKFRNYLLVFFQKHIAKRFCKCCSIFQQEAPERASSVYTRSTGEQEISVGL
The experiment in a line: CCR5 receptor membrane binding assay (CHO (Gα16) human CCR5 membranes, [125I]RANTES, SPA beads). The conditions noted are these: 6 h, read-out: hKi [nM] (CCR5). Here is the method:
The above exemplary substances have been tested for binding to CCR5 using a binding assay as outlined herein below:
CHO, (Gα16) human CCR5 cells were cultured under standardized conditions at 37° C. and 5% CO2 in a humidified incubator. CHO (Gα16) human CCR5 cells were cultivated in Ham's F12 (Invitrogen; #31765068) supplemented with 10 µg/ml Puromycin (Invitrogen; #A11139-03), 200 µg/ml Zeocin (Invitrogen; #45-0003) and 10% FCS (Gibco; #10500-064).
Membranes were prepared from CHO (Gα16) human CCR5 cells. Cells were cultured on […] plates (Nunc; #166508) 2-3 days before membrane preparation (usually 80-100 plates to obtain 80 mg protein).
Cells were scraped off the plates with a big scraper and washed with 2×5 ml ice cold Phosphate Buffer Saline (PBS; Invitrogen; #14040-174). Cell suspension was collected in a glass bottle (on ice). Cell suspension was harvested at 1400 rpm and 4° C. for 10 min and washed in PBS. Cell pellet was resuspended in 40 ml PBS with protease inhibitor mix ‘complete’ (Roche; #11873580001; 1 tablet/50 ml).
For gentle cell disruption the membrane preparation was performed by using a homogenizer (potter). Cells were homogenized for 5-10 min.
Membranes were centrifuged at 1000 rpm and 4° C. for 5 min. Supernatant (=membrane) was harvested in a new falcon tube and remaining cell pellet homogenized again for 5-10 min with PBS with protease inhibitor mix and centrifuged. Collected supernatant was centrifuged at 40000 rpm and 4° C. for 30 min to sediment the cell membranes.
The membranes were resuspended in 25 mM HEPES, 25 mM MgCl2, 1 mM CaCl2, 10% Glycerine for storage in aliquots at −80° C. Membranes were diluted to a concentration of 5 mg/ml (Bradford Assay).
[^125I]RANTES, Stock: 1825 Ci/mmol, 25 μCi (Bio Trend #A3-AI-676) was solved in 1000 μl assay buffer (100 mM NaCl; 10 mM MgCl2; 50 mM Tris-HCl; 1 mM EDTA; 0.1% BSA, pH 7.6), stored at −20° C.
CHO (Gα16) human CCR5 membrane were solved on ice and adjusted with assay buffer to a concentration of 2.5 μg/15 μl.
Amersham Biosciences PVT-WGA Beads (GE Healthcare; #RPNQ0001) were adjusted with assay buffer to a concentration of 8 mg/ml. For preparation of the membrane-bead-suspension, membranes and beads were incubated for 30 min at RT under rotation with a ratio of 1:2.
Test compounds dissolved in 100% DMSO to a concentration of 10 mM and are further diluted with 100% DMSO to 1 mM. All additional compound dilutions were obtained with assay buffer, final 1% DMSO. 7 μl compound dilution, 45 μl membrane-bead-suspension and 10 μl [^125I]RANTES (ca. 20000 cpm/10 μl) were incubated at RT. Bound radioactivity was determined by scintillation counter after 6 h. Determination of affinity of test compounds (dissociation constant Ki) is calculated by iterative fitting of experimental data using the “easy sys” program, which is based on law of mass action (Schittkowski K. (1994), Numerische Mathematik, Vol. 68, 129-142).

In the case of `Cc1c(NC[C@H]2CCC[C@@H](c3ccc(OC(F)(F)F)cc3)O2)ncnc1C(=O)N1CCC(N2CCO[C@H]3COCC[C@H]32)CC1` (single isomer, unassigned) [Example 33], the results for the Ki at CCR2 and on human CCR5 were 1 nM and 48 nM, respectively.
As for `Cc1c(NC[C@H]2CCC[C@@H](c3ccc(OC(F)(F)F)cc3)O2)ncnc1C(=O)N1CCC(N2CCO[C@@H]3COCC[C@H]32)CC1` (single isomer, unassigned) [Example 34], the Ki was 26 nM on CCR2 and 1140 nM on human CCR5.
For `Cc1c(Nc2ccc(Cl)c(Cl)c2)nc(C2CC2)nc1C(=O)N1CCC(N2CCO[C@H]3COCC[C@H]32)CC1` (single isomer, unassigned) [Example 35a], the Ki on CCR2 worked out at 1 nM; on human CCR5 it was 160 nM.
The matching figures for `Cc1c(Nc2ccc(Cl)c(Cl)c2)nc(C2CC2)nc1C(=O)N1CCC(N2CCO[C@@H]3COCC[C@@H]32)CC1` (single isomer, unassigned) [Example 35b]: 9 nM and 1350 nM.
As for `COc1nc(Nc2cccc(C(F)(F)F)c2)c(C)c(C(=O)N2CCC(N3CCO[C@H]4COCC[C@H]43)CC2)n1` (single isomer, unassigned) [Example 36a], the Ki on CCR2 was determined as 7 nM; on human CCR5 it was 1550 nM.
As for `COc1nc(Nc2cccc(C(F)(F)F)c2)c(C)c(C(=O)N2CCC(N3CCO[C@@H]4COCC[C@@H]43)CC2)n1` (single isomer, unassigned) [Example 36b], the values for the Ki at CCR2 and at human CCR5 were 42 nM and 2100 nM, respectively.
The matching figures for `COc1nc(Nc2ccc(Cl)c(Cl)c2)c(C)c(C(=O)N2CCC(N3CCO[C@H]4COCC[C@H]43)CC2)n1` (single isomer, unassigned) [Example 37a]: 1 nM and 300 nM.
Consider `COc1nc(Nc2ccc(Cl)c(Cl)c2)c(C)c(C(=O)N2CCC(N3CCO[C@@H]4COCC[C@@H]43)CC2)n1` (single isomer, unassigned) [Example 37b], for which the Ki came out at 6 nM on CCR2 and 1000 nM at human CCR5.
The matching figures for `Cc1nc(Nc2ccc(Cl)c(Cl)c2)c(C)c(C(=O)N2CCC(N3CCO[C@H]4COCC[C@H]43)CC2)n1` (single isomer, unassigned) [Example 38a]: 3 nM and 260 nM.
The matching figures for `Cc1c(Nc2cccc(C(F)(F)F)c2)nc(C2CC2)nc1C(=O)N1CCC(N2CCO[C@H]3COCC[C@H]32)CC1` (single isomer, unassigned) [Example 39a]: 1 nM and 460 nM.
Consider `Cc1c(Nc2cccc(C(F)(F)F)c2)nc(C2CC2)nc1C(=O)N1CCC(N2CCO[C@@H]3COCC[C@@H]32)CC1` (single isomer, unassigned) [Example 39b], for which the Ki at CCR2 is 31 nM.
For the compound `Cc1nc(Nc2cccc(C(F)(F)F)c2)c(C)c(C(=O)N2CCC(N3CCO[C@H]4COCC[C@H]43)CC2)n1` (single isomer, unassigned) [Example 40b], the values for the Ki on CCR2 and on human CCR5 were 9 nM and 640 nM, respectively.
The matching figures for `Cc1c(C(=O)N2CCC(N3CCO[C@@H]4COCC[C@@H]43)CC2)ncnc1N1COc2ccc(C(F)(F)F)cc2C1` (single isomer, unassigned) [Example 41]: 2 nM and 460 nM.
For the compound `Cc1c(NC[C@H]2CCC[C@@H](c3ccc(C(F)(F)F)cc3)O2)ncnc1C(=O)N1CCC(N2CCO[C@@H]3COCC[C@@H]32)CC1` [Example 1], the Ki at CCR2 worked out at 15 nM; at human CCR5, 1770 nM.
As for `Cc1c(NC[C@H]2CCC[C@@H](c3ccc(C(F)(F)F)cc3)O2)ncnc1C(=O)N1CCC(N2CCO[C@H]3COCC[C@H]32)CC1` [Example 2], the Ki stood at 0.5 nM on CCR2 and 460 nM at human CCR5.
On the same counts, the results for `Cc1c(C(=O)N2CCC(N3CCO[C@H]4COCC[C@H]43)CC2)ncnc1N1CCc2ccc(C(F)(F)F)cc2C1` [Example 3] are 4 nM and 2090 nM.
Take `Cc1c(Nc2ccc(Cl)c(Cl)c2)ncnc1C(=O)N1CCC(N2CCO[C@H]3COCC[C@H]32)CC1` [Example 4]: the Ki was determined as 4 nM on CCR2 and 540 nM at human CCR5.
